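Interpolation was linear, between the two tested concentrations surrounding the appropriate level; five concentrations were tested over 48 hours in 96-well plates. The concentration for full growth arrest is given as TGI.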
What was measured:
Assay in all cases: NCI anticancer screen, dose series, 48 h
786-0 renal = system: 786-0 renal
A498 renal = system: A498 renal
A549 NSCLC = system: A549 NSCLC
ACHN renal = system: ACHN renal
BT-549 breast = system: BT-549 breast
CAKI-1 renal = system: CAKI-1 renal
CCRF-CEM leukemia = system: CCRF-CEM leukemia
COLO 205 colon = system: COLO 205 colon
DU-145 prostate = system: DU-145 prostate
EKVX NSCLC = system: EKVX NSCLC
HCC-2998 colon = system: HCC-2998 colon
HCT-116 colon = system: HCT-116 colon
HCT-15 colon = system: HCT-15 colon
HL-60(TB) leukemia = system: HL-60(TB) leukemia
HOP-62 NSCLC = system: HOP-62 NSCLC
HOP-92 NSCLC = system: HOP-92 NSCLC
HS 578T breast = system: HS 578T breast
HT29 colon = system: HT29 colon
IGROV1 ovarian = system: IGROV1 ovarian
K-562 leukemia = system: K-562 leukemia
KM12 colon = system: KM12 colon
LOX IMVI melanoma = system: LOX IMVI melanoma
M14 melanoma = system: M14 melanoma
MALME-3M melanoma = system: MALME-3M melanoma
MCF7 breast = system: MCF7 breast
MDA-MB-231 breast = system: MDA-MB-231 breast
MDA-MB-435 = system: MDA-MB-435
MDA-N = system: MDA-N
MOLT-4 leukemia = system: MOLT-4 leukemia
NCI-H226 lung = system: NCI-H226 lung
NCI-H23 lung = system: NCI-H23 lung
NCI-H460 lung = system: NCI-H460 lung
NCI-H522 lung = system: NCI-H522 lung
NCI/ADR-RES ovarian = system: NCI/ADR-RES ovarian
OVCAR-3 ovarian = system: OVCAR-3 ovarian
OVCAR-4 ovarian = system: OVCAR-4 ovarian
OVCAR-5 ovarian = system: OVCAR-5 ovarian
OVCAR-8 ovarian = system: OVCAR-8 ovarian
PC-3 prostate = system: PC-3 prostate
RPMI-8226 leukemia = system: RPMI-8226 leukemia
RXF 393 renal = system: RXF 393 renal
SF-268 CNS = system: SF-268 CNS
SF-295 CNS = system: SF-295 CNS
SF-539 CNS = system: SF-539 CNS
SK-MEL-2 melanoma = system: SK-MEL-2 melanoma
SK-MEL-28 melanoma = system: SK-MEL-28 melanoma
SK-MEL-5 melanoma = system: SK-MEL-5 melanoma
SK-OV-3 ovarian = system: SK-OV-3 ovarian
SN12C renal = system: SN12C renal
SNB-19 CNS = system: SNB-19 CNS
SNB-75 CNS = system: SNB-75 CNS
SW-620 colon = system: SW-620 colon
T-47D breast = system: T-47D breast
U251 CNS = system: U251 CNS
UACC-257 melanoma = system: UACC-257 melanoma
UACC-62 melanoma = system: UACC-62 melanoma
UO-31 renal = system: UO-31 renal
SR leukemia = system: SR leukemia
TK-10 renal = system: TK-10 renal

## CCc1cccc(C(C)(C)C)c1NC(=S)N/C=C(/C#N)C(N)=O
786-0 renal
  TGI: > 100 µM
A498 renal
  TGI: > 100 µM
A549 NSCLC
  TGI: > 100 µM
ACHN renal
  TGI: > 100 µM
BT-549 breast
  TGI: > 100 µM
CAKI-1 renal
  TGI: > 100 µM
CCRF-CEM leukemia
  TGI: > 100 µM
COLO 205 colon
  TGI: > 100 µM
DU-145 prostate
  TGI: > 100 µM
EKVX NSCLC
  TGI: > 100 µM
HCC-2998 colon
  TGI: > 100 µM
HCT-116 colon
  TGI: > 100 µM
HCT-15 colon
  TGI: > 100 µM
HL-60(TB) leukemia
  TGI: > 100 µM
HOP-62 NSCLC
  TGI: > 100 µM
HOP-92 NSCLC
  TGI: 72 µM
HS 578T breast
  TGI: > 100 µM
HT29 colon
  TGI: > 100 µM
IGROV1 ovarian
  TGI: > 100 µM
K-562 leukemia
  TGI: > 100 µM
KM12 colon
  TGI: > 100 µM
LOX IMVI melanoma
  TGI: > 100 µM
M14 melanoma
  TGI: > 100 µM
MALME-3M melanoma
  TGI: > 100 µM
MCF7 breast
  TGI: > 100 µM
MDA-MB-231 breast
  TGI: > 100 µM
MDA-MB-435
  TGI: > 100 µM
MDA-N
  TGI: > 100 µM
MOLT-4 leukemia
  TGI: > 100 µM
NCI-H226 lung
  TGI: > 100 µM
NCI-H23 lung
  TGI: > 100 µM
NCI-H460 lung
  TGI: > 100 µM
NCI-H522 lung
  TGI: > 100 µM
NCI/ADR-RES ovarian
  TGI: > 100 µM
OVCAR-3 ovarian
  TGI: > 100 µM
OVCAR-4 ovarian
  TGI: > 100 µM
OVCAR-5 ovarian
  TGI: > 100 µM
OVCAR-8 ovarian
  TGI: > 100 µM
PC-3 prostate
  TGI: > 100 µM
RPMI-8226 leukemia
  TGI: > 100 µM
RXF 393 renal
  TGI: > 100 µM
SF-268 CNS
  TGI: > 100 µM
SF-295 CNS
  TGI: > 100 µM
SF-539 CNS
  TGI: > 100 µM
SK-MEL-2 melanoma
  TGI: > 100 µM
SK-MEL-28 melanoma
  TGI: > 100 µM
SK-MEL-5 melanoma
  TGI: > 100 µM
SK-OV-3 ovarian
  TGI: > 100 µM
SN12C renal
  TGI: > 100 µM
SNB-19 CNS
  TGI: > 100 µM
SNB-75 CNS
  TGI: > 100 µM
SW-620 colon
  TGI: > 100 µM
T-47D breast
  TGI: > 100 µM
U251 CNS
  TGI: > 100 µM
UACC-257 melanoma
  TGI: > 100 µM
UACC-62 melanoma
  TGI: > 100 µM
UO-31 renal
  TGI: > 100 µM

## Cc1c[n+](=O)c2ccccc2n1[O-]
786-0 renal
  TGI: > 100 µM
A498 renal
  TGI: > 100 µM
A549 NSCLC
  TGI: > 100 µM
ACHN renal
  TGI: > 100 µM
BT-549 breast
  TGI: > 100 µM
CAKI-1 renal
  TGI: > 100 µM
CCRF-CEM leukemia
  TGI: > 100 µM
COLO 205 colon
  TGI: > 100 µM
DU-145 prostate
  TGI: > 100 µM
EKVX NSCLC
  TGI: > 100 µM
HCT-116 colon
  TGI: > 100 µM
HCT-15 colon
  TGI: > 100 µM
HOP-62 NSCLC
  TGI: > 100 µM
HOP-92 NSCLC
  TGI: > 100 µM
HS 578T breast
  TGI: > 100 µM
HT29 colon
  TGI: > 100 µM
IGROV1 ovarian
  TGI: > 100 µM
K-562 leukemia
  TGI: > 100 µM
KM12 colon
  TGI: > 100 µM
LOX IMVI melanoma
  TGI: > 100 µM
M14 melanoma
  TGI: > 100 µM
MALME-3M melanoma
  TGI: > 100 µM
MCF7 breast
  TGI: > 100 µM
MDA-MB-231 breast
  TGI: > 100 µM
MDA-MB-435
  TGI: > 100 µM
MDA-N
  TGI: > 100 µM
MOLT-4 leukemia
  TGI: > 100 µM
NCI-H23 lung
  TGI: > 100 µM
NCI-H460 lung
  TGI: > 100 µM
NCI-H522 lung
  TGI: > 100 µM
NCI/ADR-RES ovarian
  TGI: > 100 µM
OVCAR-3 ovarian
  TGI: > 100 µM
OVCAR-4 ovarian
  TGI: > 100 µM
OVCAR-5 ovarian
  TGI: > 100 µM
OVCAR-8 ovarian
  TGI: > 100 µM
PC-3 prostate
  TGI: > 100 µM
RPMI-8226 leukemia
  TGI: > 100 µM
RXF 393 renal
  TGI: > 100 µM
SF-268 CNS
  TGI: > 100 µM
SF-295 CNS
  TGI: > 100 µM
SF-539 CNS
  TGI: > 100 µM
SK-MEL-2 melanoma
  TGI: > 100 µM
SK-MEL-28 melanoma
  TGI: > 100 µM
SK-MEL-5 melanoma
  TGI: > 100 µM
SK-OV-3 ovarian
  TGI: > 100 µM
SN12C renal
  TGI: > 100 µM
SNB-19 CNS
  TGI: > 100 µM
SNB-75 CNS
  TGI: > 100 µM
SR leukemia
  TGI: > 100 µM
SW-620 colon
  TGI: > 100 µM
T-47D breast
  TGI: > 100 µM
TK-10 renal
  TGI: > 100 µM
U251 CNS
  TGI: > 100 µM
UACC-257 melanoma
  TGI: > 100 µM
UACC-62 melanoma
  TGI: > 100 µM
UO-31 renal
  TGI: > 100 µM

## CNC(=O)Nc1nc2ccc([N+](=O)[O-])cc2[nH]1
786-0 renal
  TGI: > 100 µM
A498 renal
  TGI: > 100 µM
A549 NSCLC
  TGI: > 100 µM
ACHN renal
  TGI: > 100 µM
BT-549 breast
  TGI: > 100 µM
CAKI-1 renal
  TGI: > 100 µM
CCRF-CEM leukemia
  TGI: > 100 µM
COLO 205 colon
  TGI: > 100 µM
DU-145 prostate
  TGI: > 100 µM
EKVX NSCLC
  TGI: > 100 µM
HCC-2998 colon
  TGI: > 100 µM
HCT-116 colon
  TGI: > 100 µM
HCT-15 colon
  TGI: > 100 µM
HL-60(TB) leukemia
  TGI: > 100 µM
HOP-62 NSCLC
  TGI: > 100 µM
HOP-92 NSCLC
  TGI: > 100 µM
HS 578T breast
  TGI: > 100 µM
HT29 colon
  TGI: > 100 µM
IGROV1 ovarian
  TGI: > 100 µM
K-562 leukemia
  TGI: > 100 µM
KM12 colon
  TGI: > 100 µM
LOX IMVI melanoma
  TGI: > 100 µM
M14 melanoma
  TGI: > 100 µM
MALME-3M melanoma
  TGI: > 100 µM
MCF7 breast
  TGI: > 100 µM
MDA-MB-231 breast
  TGI: > 100 µM
MDA-MB-435
  TGI: > 100 µM
MDA-N
  TGI: > 100 µM
MOLT-4 leukemia
  TGI: > 100 µM
NCI-H226 lung
  TGI: > 100 µM
NCI-H23 lung
  TGI: > 100 µM
NCI-H460 lung
  TGI: > 100 µM
NCI-H522 lung
  TGI: > 100 µM
NCI/ADR-RES ovarian
  TGI: > 100 µM
OVCAR-3 ovarian
  TGI: > 100 µM
OVCAR-4 ovarian
  TGI: > 100 µM
OVCAR-5 ovarian
  TGI: > 100 µM
OVCAR-8 ovarian
  TGI: > 100 µM
PC-3 prostate
  TGI: > 100 µM
RPMI-8226 leukemia
  TGI: > 100 µM
RXF 393 renal
  TGI: > 100 µM
SF-268 CNS
  TGI: > 100 µM
SF-295 CNS
  TGI: > 100 µM
SF-539 CNS
  TGI: > 100 µM
SK-MEL-2 melanoma
  TGI: > 100 µM
SK-MEL-28 melanoma
  TGI: > 100 µM
SK-MEL-5 melanoma
  TGI: > 100 µM
SK-OV-3 ovarian
  TGI: > 100 µM
SN12C renal
  TGI: > 100 µM
SNB-19 CNS
  TGI: > 100 µM
SR leukemia
  TGI: > 100 µM
SW-620 colon
  TGI: > 100 µM
T-47D breast
  TGI: > 100 µM
TK-10 renal
  TGI: > 100 µM
U251 CNS
  TGI: > 100 µM
UACC-257 melanoma
  TGI: > 100 µM
UO-31 renal
  TGI: > 100 µM
